Source: ChEMBL document CHEMBL1201862, “PubChem BioAssay data set” (2004)
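Briefly, cells in 96-well plates were exposed to five compound concentrations for 48 h, and endpoints were estimated by linear interpolation. GI50 = concentration required for 50% inhibition of growth.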 The source made the active and inactive calls. No stated cut-off is given here; in the data, active = GI50 up to about 1.1 µM and inactive = higher.

Legend:
Assay in all cases: DTP human tumour cell line panel, 48 h
SK-MEL-5 = tested on: SK-MEL-5
MDA-MB-435 = tested on: MDA-MB-435
NCI-H23 = tested on: NCI-H23
T47D = tested on: T47D
PC-3 = tested on: PC-3
NCI-H226 = tested on: NCI-H226
OVCAR-8 = tested on: OVCAR-8
CCRF-CEM = tested on: CCRF-CEM
NCI/ADR-RES = tested on: NCI/ADR-RES
NCI-H460 = tested on: NCI-H460
TK-10 = tested on: TK-10
K562 = tested on: K562
SK-MEL-2 = tested on: SK-MEL-2
UO-31 = tested on: UO-31
RXF 393 = tested on: RXF 393
ACHN = tested on: ACHN
786-0 = tested on: 786-0
Hs-578T = tested on: Hs-578T
RPMI-8226 = tested on: RPMI-8226
SK-OV-3 = tested on: SK-OV-3

Measured: GI50

Cn1c(=O)c2nc(SCc3ccccn3)[nH]c2n(C)c1=S
inactive: SK-MEL-5 > 100 µM | MDA-MB-435 > 100 µM | NCI-H23 > 100 µM | T47D 66.8 µM | PC-3 > 100 µM | NCI-H226 63.7 µM | OVCAR-8 56 µM | CCRF-CEM > 100 µM | NCI/ADR-RES 90.4 µM | NCI-H460 > 100 µM | TK-10 86.7 µM | K562 > 100 µM | SK-MEL-2 52.8 µM | UO-31 70.5 µM | RXF 393 32.1 µM | ACHN > 100 µM | 786-0 67.5 µM | Hs-578T > 100 µM | RPMI-8226 > 100 µM | SK-OV-3 27.7 µM

C[n+]1cccc(/C=C/c2ccc3cccc(O)c3n2)c1
inactive: SK-MEL-5 37.1 µM | MDA-MB-435 > 100 µM | NCI-H23 58.2 µM | T47D 83.2 µM | PC-3 > 100 µM | NCI-H226 > 100 µM | OVCAR-8 72.3 µM | CCRF-CEM 45.7 µM | NCI/ADR-RES > 100 µM | NCI-H460 68.7 µM | TK-10 > 100 µM | K562 50.9 µM | SK-MEL-2 > 100 µM | UO-31 > 100 µM | RXF 393 > 100 µM | ACHN > 100 µM | 786-0 > 100 µM | Hs-578T 65.5 µM | RPMI-8226 > 100 µM | SK-OV-3 > 100 µM
